Legend:
[1] = target: Mitogen-activated protein kinase kinase kinase kinase 4 (Homo sapiens, UniProt O95819); assay: Selectivity interaction (Kinase panel (Z-LYTE Assay)) EUB0001632a MAP4K4; conditions: at 10 µM
[2] = target: Histone-lysine N-methyltransferase PRDM9 (Homo sapiens) (UniProt Q9NQV7); assay: Selectivity interaction (Methyltransferase screen (radiometric assays, panel of 8 PRMTs, 21 protein lysine methyltransferases, 3 DNA methyltransferases, and one RNA methyltransferase)) EUB0000272b PRDM9
[3] = target: 4-aminobutyrate aminotransferase, mitochondrial (Homo sapiens, UniProt P80404); assay: Selectivity interaction (GPCR panel (PDSP screen)) EUB0000311b ABAT
[4] = target: Dual specificity tyrosine-phosphorylation-regulated kinase 1B (Homo sapiens, UniProt Q9Y463); assay: Selectivity interaction (Enzymatic assay (Eurofins)) EUB0001049a DYRK1B
[5] = target: T1, Testis-specific serine/threonine-protein kinase 1 (Homo sapiens) (UniProt Q9BXA7); assay: Selectivity interaction (Ambit KINOMEscan and KiNATiv profiling in Jurkat cells) EUB0000090b TSSK1B; assay type: cell-based; conditions: at 1 µM
T1 sequence (whole entry): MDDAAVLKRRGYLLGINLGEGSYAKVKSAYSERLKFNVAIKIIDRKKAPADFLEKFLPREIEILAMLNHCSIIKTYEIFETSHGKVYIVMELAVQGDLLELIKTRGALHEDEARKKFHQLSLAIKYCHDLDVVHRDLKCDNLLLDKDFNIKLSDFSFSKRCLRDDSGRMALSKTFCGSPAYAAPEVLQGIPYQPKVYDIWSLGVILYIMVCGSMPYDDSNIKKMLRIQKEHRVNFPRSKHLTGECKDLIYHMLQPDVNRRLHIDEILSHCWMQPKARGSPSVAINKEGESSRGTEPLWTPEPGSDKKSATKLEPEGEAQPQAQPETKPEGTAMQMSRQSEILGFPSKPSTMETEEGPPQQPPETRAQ

[6] = target: T2, Mitogen-activated protein kinase 12 (Homo sapiens) (UniProt P53778); assay: Selectivity interaction (Ambit KINOMEscan and KiNATiv profiling in Jurkat cells) EUB0000090b MAPK12; assay type: cell-based; conditions: at 1 µM
T2 sequence (whole entry): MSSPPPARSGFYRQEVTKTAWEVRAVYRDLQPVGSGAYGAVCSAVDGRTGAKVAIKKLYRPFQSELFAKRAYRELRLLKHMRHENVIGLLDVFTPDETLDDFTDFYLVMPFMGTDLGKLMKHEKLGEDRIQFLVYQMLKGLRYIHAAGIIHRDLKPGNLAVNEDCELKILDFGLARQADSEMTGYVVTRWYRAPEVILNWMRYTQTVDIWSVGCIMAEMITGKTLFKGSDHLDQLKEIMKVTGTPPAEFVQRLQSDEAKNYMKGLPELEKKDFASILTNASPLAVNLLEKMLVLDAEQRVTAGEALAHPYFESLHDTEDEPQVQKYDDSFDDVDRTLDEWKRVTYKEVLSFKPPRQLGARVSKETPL

[7] = target: Serine/threonine-protein kinase PAK 6 (Homo sapiens) (UniProt Q9NQU5); assay: Selectivity interaction (KinomeScan (DiscoverX)) EUB0000045b PAK6
[8] = target: Myosin-IIIa (Homo sapiens) (UniProt Q8NEV4); assay: Selectivity interaction (KinomeScan (DiscoverX)) EUB0000045b MYO3A
[9] = target: Phosphatidylinositol 3-kinase catalytic subunit type 3 (Homo sapiens, UniProt Q8NEB9); assay: Selectivity interaction (Kinase panel (KiNativ target engagement assay in Jurkat cells)) EUB0001635a PIK3C3; assay type: cell-based; conditions: Selectivity number of off-targets 0.0, Selectivity number of targets 233.0, Source Knowledge https://www.sciencedirect.com/science/article/pii/S2451945619300674?via%3Dihub, at 1 µM
[10] = tested on: Hepatocyte growth factor receptor (Homo sapiens), P08581 [M1250T]; conditions: at 10 µM
[11] = target: Tyrosine-protein kinase Srms (Homo sapiens) (UniProt Q9H3Y6); conditions: at 10 µM
[12] = target: T3, cGMP-dependent protein kinase 2 (Homo sapiens) (UniProt Q13237); conditions: at 10 µM
T3 sequence (whole entry): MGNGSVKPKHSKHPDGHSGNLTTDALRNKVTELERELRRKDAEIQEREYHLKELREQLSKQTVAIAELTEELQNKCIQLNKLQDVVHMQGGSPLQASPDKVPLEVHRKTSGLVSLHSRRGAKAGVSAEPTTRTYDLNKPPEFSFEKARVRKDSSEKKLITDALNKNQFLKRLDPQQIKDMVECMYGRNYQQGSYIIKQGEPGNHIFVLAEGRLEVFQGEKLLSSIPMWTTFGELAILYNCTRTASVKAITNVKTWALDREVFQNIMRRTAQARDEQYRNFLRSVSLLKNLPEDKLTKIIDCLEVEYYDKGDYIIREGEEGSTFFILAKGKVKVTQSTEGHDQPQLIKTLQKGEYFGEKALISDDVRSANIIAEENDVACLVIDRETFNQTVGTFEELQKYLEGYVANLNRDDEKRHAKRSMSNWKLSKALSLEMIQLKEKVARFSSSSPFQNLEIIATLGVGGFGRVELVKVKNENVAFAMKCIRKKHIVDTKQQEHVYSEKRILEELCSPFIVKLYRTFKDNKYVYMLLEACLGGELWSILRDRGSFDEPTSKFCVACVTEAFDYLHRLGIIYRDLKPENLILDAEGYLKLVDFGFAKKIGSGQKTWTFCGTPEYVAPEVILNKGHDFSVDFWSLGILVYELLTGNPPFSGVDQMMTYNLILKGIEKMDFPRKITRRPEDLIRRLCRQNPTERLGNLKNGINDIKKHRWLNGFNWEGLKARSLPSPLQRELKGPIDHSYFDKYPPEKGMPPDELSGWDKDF

[13] = target: Non-receptor tyrosine-protein kinase TYK2 (Homo sapiens, UniProt P29597); conditions: at 10 µM
[14] = target: Tyrosine-protein kinase SYK (Homo sapiens, UniProt P43405); assay: Selectivity interaction (KinomeScan (DiscoverX)) EUB0000618a SYK; conditions: at 10 µM

Histone-lysine N-methyltransferase PRDM9 (Homo sapiens), sequence (Q9NQV7 whole entry): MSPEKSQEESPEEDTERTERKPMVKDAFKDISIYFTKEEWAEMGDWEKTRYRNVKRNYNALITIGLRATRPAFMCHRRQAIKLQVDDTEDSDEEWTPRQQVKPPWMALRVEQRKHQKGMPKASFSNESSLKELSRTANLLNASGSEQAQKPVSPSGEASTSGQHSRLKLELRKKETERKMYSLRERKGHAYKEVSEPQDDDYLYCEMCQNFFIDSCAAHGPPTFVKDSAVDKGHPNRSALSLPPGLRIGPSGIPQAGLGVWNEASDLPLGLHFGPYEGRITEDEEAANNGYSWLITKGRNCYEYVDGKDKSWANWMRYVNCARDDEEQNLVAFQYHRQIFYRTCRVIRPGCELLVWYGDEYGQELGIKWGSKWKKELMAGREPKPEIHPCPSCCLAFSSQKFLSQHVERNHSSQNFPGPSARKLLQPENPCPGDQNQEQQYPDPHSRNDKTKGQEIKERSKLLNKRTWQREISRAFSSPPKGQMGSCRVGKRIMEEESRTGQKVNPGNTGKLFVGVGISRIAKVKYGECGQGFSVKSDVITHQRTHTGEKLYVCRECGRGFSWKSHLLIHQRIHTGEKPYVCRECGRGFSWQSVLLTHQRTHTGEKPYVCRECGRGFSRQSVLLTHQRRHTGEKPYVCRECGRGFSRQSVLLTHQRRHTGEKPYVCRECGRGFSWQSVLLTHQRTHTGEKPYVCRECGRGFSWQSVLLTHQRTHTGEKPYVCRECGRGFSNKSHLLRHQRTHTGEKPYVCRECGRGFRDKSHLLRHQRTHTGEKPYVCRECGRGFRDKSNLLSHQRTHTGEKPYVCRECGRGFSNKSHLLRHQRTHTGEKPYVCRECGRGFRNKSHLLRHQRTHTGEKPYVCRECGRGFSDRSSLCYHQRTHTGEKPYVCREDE
Serine/threonine-protein kinase PAK 6 (Homo sapiens), sequence (Q9NQU5 whole entry, looked up): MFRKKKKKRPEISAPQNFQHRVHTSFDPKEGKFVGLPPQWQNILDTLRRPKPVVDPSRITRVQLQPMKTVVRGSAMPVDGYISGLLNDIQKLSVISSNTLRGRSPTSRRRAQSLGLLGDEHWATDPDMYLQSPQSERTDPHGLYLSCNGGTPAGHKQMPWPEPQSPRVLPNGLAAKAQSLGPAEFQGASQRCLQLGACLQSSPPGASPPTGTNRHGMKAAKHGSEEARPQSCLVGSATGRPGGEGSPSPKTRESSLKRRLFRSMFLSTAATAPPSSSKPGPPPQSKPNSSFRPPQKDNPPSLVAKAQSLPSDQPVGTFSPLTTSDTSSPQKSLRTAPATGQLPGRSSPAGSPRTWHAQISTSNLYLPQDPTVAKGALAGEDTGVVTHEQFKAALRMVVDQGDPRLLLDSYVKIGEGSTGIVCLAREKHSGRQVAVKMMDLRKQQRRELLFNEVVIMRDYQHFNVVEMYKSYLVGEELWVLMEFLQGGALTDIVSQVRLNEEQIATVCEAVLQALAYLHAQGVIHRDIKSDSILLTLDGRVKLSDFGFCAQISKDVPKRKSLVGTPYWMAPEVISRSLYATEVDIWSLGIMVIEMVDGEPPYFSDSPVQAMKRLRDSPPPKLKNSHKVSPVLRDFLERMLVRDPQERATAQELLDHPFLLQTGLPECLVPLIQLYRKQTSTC
Myosin-IIIa (Homo sapiens), sequence (Q8NEV4 whole entry): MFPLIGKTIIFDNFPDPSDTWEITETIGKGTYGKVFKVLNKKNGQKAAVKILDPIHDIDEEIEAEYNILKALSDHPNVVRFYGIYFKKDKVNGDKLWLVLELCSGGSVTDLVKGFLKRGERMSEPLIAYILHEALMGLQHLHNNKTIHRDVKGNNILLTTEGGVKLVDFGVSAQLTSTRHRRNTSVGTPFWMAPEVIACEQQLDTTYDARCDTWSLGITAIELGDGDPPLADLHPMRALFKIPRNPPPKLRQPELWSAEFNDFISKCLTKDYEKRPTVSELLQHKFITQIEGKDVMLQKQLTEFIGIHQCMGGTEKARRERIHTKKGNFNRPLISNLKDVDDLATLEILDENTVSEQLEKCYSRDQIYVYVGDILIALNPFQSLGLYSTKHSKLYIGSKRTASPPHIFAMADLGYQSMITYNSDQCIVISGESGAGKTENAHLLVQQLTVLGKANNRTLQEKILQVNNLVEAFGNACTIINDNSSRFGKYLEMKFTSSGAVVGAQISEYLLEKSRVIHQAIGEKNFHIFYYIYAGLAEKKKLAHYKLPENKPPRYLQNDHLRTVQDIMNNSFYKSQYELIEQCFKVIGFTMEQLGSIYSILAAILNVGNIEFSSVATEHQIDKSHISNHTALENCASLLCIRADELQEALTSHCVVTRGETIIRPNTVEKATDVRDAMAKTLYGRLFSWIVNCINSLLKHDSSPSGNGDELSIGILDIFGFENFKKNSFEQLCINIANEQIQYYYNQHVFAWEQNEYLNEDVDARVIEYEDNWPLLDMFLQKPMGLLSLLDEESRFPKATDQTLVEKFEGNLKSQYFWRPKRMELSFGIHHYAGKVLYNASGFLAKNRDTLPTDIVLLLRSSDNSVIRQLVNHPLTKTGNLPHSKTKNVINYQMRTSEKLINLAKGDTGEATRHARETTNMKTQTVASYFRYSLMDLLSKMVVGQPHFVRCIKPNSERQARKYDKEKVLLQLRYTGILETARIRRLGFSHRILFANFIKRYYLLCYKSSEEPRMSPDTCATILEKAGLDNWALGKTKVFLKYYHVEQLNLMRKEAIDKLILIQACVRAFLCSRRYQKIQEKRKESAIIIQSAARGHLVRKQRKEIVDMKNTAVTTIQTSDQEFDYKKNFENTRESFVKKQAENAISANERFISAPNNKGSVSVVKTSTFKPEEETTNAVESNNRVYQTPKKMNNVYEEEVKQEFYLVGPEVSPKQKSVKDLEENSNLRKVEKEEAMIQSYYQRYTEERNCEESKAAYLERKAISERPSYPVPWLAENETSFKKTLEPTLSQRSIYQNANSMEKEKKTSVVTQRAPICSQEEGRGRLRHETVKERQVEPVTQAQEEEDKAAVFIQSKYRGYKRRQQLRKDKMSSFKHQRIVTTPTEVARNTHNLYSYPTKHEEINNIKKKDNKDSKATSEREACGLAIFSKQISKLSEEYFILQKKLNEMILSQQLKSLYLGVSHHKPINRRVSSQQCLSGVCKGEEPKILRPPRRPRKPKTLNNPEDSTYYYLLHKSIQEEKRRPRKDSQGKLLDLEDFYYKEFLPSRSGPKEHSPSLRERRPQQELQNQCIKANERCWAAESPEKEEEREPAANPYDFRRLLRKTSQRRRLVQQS
4-aminobutyrate aminotransferase, mitochondrial, sequence (P80404 whole entry): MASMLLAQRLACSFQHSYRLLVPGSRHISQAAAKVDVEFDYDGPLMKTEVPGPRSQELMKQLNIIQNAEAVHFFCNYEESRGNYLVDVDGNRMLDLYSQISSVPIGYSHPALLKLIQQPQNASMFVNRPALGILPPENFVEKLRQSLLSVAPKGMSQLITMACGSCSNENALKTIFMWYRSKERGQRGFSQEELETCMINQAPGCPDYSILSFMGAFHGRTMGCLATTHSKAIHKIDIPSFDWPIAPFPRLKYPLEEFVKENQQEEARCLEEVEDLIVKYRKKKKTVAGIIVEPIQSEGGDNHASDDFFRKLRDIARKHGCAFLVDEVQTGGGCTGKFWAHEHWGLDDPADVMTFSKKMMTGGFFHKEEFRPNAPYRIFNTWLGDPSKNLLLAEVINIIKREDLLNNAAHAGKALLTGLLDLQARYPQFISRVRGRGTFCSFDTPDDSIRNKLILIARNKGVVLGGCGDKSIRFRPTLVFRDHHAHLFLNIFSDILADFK
Mitogen-activated protein kinase kinase kinase kinase 4, sequence (O95819 2-1239 limits assumed): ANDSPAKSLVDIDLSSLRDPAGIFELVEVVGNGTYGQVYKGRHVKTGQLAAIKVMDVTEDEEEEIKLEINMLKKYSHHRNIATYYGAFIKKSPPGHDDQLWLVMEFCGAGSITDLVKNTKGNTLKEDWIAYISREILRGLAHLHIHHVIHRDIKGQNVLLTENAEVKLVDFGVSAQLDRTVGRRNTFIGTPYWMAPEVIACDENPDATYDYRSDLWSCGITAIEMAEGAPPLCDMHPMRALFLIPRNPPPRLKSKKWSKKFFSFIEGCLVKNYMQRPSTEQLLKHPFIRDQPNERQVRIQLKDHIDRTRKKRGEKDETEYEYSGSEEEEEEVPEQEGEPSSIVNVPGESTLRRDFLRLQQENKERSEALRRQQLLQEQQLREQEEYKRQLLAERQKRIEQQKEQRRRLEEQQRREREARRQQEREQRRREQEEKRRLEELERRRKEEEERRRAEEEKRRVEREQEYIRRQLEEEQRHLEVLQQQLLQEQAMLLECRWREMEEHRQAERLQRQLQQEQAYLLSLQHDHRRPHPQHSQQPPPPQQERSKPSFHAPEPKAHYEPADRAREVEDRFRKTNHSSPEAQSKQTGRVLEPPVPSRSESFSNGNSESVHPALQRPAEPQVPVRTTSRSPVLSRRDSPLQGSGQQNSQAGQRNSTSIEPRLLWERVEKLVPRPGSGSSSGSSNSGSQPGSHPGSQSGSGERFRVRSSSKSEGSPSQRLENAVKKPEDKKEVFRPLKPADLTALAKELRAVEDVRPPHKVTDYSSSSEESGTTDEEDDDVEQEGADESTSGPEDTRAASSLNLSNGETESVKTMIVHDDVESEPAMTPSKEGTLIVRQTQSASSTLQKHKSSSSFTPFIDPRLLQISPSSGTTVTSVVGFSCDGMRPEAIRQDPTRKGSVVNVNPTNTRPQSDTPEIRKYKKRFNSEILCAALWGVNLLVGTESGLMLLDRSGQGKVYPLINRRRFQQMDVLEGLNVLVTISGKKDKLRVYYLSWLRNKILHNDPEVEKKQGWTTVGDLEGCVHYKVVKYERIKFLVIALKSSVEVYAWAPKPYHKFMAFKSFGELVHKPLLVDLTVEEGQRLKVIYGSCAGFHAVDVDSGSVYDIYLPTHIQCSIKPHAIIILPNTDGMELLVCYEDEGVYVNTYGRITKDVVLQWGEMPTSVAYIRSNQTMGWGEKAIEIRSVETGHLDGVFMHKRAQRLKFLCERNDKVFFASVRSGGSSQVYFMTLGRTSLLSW

## Cn1cc(-n2cnc3c(NCc4nc5cc(Cl)c(Cl)cc5[nH]4)nc(N4CCOCC4)nc32)cn1
[1]
  % of control: 4.98%

## Cc1cc(C)cc([C@H]2c3cc(C)ccc3NC(=O)CN2C(=O)c2ccc(Br)s2)c1
[2]; at 1 µM
  % of activity: 98.7%
[2]; at 10 µM
  % of activity: 96.3%

## CCc1ccccc1C(=O)Nc1n[nH]c2c(C)c(F)c(C3C(C#N)=C(C)N(C)C(C)=C3C#N)cc12 [BAY-3827]
[3]
  Ki: 0.222 µM

## COc1cc(Nc2nc(C)cc(-c3cnn4nc(OC)ccc34)n2)cc(C(F)(F)F)c1
[4]
  IC50: > 10 µM

## CN(C)C/C=C/C(=O)Nc1ccc(C(=O)N2CCCC(Nc3ncc(Cl)c(-c4c[nH]c5ccccc45)n3)C2)cc1 (configuration not stated)
[5]
  % of control: 83%
[6]
  % of control: 78%

## C=CC(=O)Nc1cc(-n2c(=O)ccc3cnc4ccc(-c5ccc(NS(C)(=O)=O)cc5)cc4c32)ccc1C
[7]; at 1 µM
  % of control: 100%
[7]; at 10 µM
  % of control: 73%
[8]; at 1 µM
  % of control: 100%
[8]; at 10 µM
  % of control: 85%

## C=CC(=O)Nc1ccc(C(=O)Nc2[nH]nc3c2CN(C(=O)N[C@H](CN(C)C)c2ccccc2)C3(C)C)cc1
[9]
  % of engagement: -19.8%

## Cc1cc([C@@H](C)Nc2ccccc2C(=O)O)c2nc(N3CCOCC3)cc(=O)n2c1 [AZD-6482]
[10]
  % of control: 87%
[11]
  % of control: 63%
[12]
  % of control: 98%
[13]
  % of control: 100%

## O[C@H]1CC[C@H](Nc2ncc3nc(Nc4c(F)cc(F)cc4F)n([C@H]4CCOC4)c3n2)CC1
[14]
  % of control: 100%

From ChEMBL document CHEMBL5465560, “Selectivity Literature for EUbOPEN Chemogenomic Library” (2024)
